Laboratory results from patent publication US8436039B2, “Inhibitors of the ATB(0,+) transporter and uses thereof” (Georgia Health Sciences University Research Institute, Inc., priority 2008, dated 2013).

Key:
Type in all cases: cell-based
[1] = target: T1, mouse ATB^0,+ (Mus musculus, UniProt Q9JMA9); assay: Inhibition of ATB^0,+-mediated glycine uptake in HRPE cells expressing cloned mouse ATB^0,+; details: glycine 10 μM; inhibitor 1 mM; 30 min; NaCl; HRPE cells
T1 sequence (Q9JMA9 1-638): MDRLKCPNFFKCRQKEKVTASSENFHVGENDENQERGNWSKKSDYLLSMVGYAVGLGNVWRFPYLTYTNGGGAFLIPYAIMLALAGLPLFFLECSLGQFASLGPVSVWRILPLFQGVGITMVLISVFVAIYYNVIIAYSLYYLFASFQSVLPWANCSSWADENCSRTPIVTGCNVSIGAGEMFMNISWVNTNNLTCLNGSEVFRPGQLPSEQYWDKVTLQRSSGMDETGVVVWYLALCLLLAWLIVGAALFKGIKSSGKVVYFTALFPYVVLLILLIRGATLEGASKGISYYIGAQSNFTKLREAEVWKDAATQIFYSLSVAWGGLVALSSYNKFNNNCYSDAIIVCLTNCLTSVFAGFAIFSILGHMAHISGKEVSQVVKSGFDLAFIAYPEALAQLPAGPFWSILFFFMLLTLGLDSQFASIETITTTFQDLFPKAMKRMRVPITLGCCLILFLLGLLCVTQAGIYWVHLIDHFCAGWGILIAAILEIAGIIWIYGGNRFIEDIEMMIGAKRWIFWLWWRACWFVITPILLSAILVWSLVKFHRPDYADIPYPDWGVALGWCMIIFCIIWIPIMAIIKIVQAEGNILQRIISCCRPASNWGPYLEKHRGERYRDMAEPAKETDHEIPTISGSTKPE

[2] = target: T1, mouse ATB^0,+; assay: Substrate-induced inward currents in X. laevis oocytes expressing mouse ATB^0,+ (two-microelectrode voltage clamp); details: voltage clamp, NaCl; for inward currents induced in ATB^0,+-expressing oocytes: 2.5 mM
Description: (§1) Capped cRNA from the cloned mouse or human ATB^0,+ cDNA was synthesized using the mMESSAGE mMACHTNE kit (Ambion, Austin, Tex., U.S.A.). Mature oocytes (stage IV or V) from X. laevis were injected with 50 ng of cRNA. Uninjected oocytes served as controls. The oocytes were used for electrophysiological studies 3-6 days after cRNA injection. Electrophysiological studies were performed by the two-microelectrode voltage-clamp method (Nakanishi et al., 2001, J. Physiol. 532, 297-304). Oocytes were superfused with an NaCl-containing buffer (100 mM NaCl, 2 mM KCl, 1 mM MgCl2, 1 mM CaCl2, 3 mM Hepes, 3 mM Mes and 3 mM Tris, pH 7.5), followed by the same buffer containing tryptophan derivatives. The membrane potential was clamped at −50 mV. The differences between the steady-state currents measured in the presence and absence of substrates were considered as the substrate-induced currents. In the analysis of the saturation kinetics of substrate-induced currents, the kinetic parameter K0.5 (i.e. substrate concentration necessary for induction of half-maximal current) was calculated by fitting the values of the substrate-induced currents to the Michaelis-Menten equation. The Na^+ and Cl^− activation kinetics of substrate-induced currents were analysed by measuring the substrate-specific currents in the presence of increasing concentrations of Na^+ (concentration of Cl^− kept constant at 100 mM) or in the presence of increasing concentrations of Cl^− (concentration of Na^+ kept constant at 100 mM). In these experiments, the composition of the superfusion buffer was modified to contain 2 mM potassium gluconate, 1 mM MgSO4 and 1 mM calcium gluconate in place of KCl, MgCl2 and CaCl2 respectively. The data from these experiments were analysed by the Hill equation to determine the Hill coefficient (h; number of Na^+ and Cl^− ions involved in the activation process). The kinetic parameters were determined by using the commercially available computer program Sigma Plot, version 6.0 (SPSS, Chicago, Ill., U.S.A.). Uninjected oocytes were used to determine the currents induced by tryptophan derivatives due to entry via transporters that may be constitutively expressed in the oocytes. At a concentration of 2.5 mM, the currents induced by these compounds were in the range of 0-3 nA in uninjected oocytes. These currents were less than 2% of the corresponding currents induced in ATB^0,+ cRNA-injected oocytes. Therefore the endogenous currents associated with the constitutively expressed transporters were not considered in the analysis of kinetic parameters of ATB^0,+ transport activity.
The above studies with the mammalian cell expression system have focused on the interaction of 1-methyltryptophan and other tryptophan derivatives with ATB^0,+ by examining the effects of these compounds on the transporter-mediated glycine uptake. These studies have shown convincingly that 1-methyltryptophan interacts with ATB^0,+, with the L-isomer having much higher affinity for the transporter than the D-isomer. However, these studies have not shown whether or not 1-methyltryptophan is actually a transportable substrate for ATB^0,+. It is possible that 1-methyltryptophan inhibits ATB^0,+-mediated glycine uptake simply by blocking the interaction of glycine with the substrate-binding site of the transporter, rather than by actually competing with glycine for the transport process. […] We wanted to know whether 1-methyltryptophan can actually be transported by ATB^0,+. For this, we used the X. laevis oocyte expression system. Since the transport process mediated by ATB^0,+ is electrogenic, exposure of ATB^0,+-expressing oocytes to transportable substrates will induce an inward current in an Na^+- and Cl^−-dependent manner. Exposure of the same oocytes to blockers will interfere with currents induced by transportable substrates, but will not induce currents by themselves. […]

[3] = target: T2, ATB^0,+ in MCF7 cells (Homo sapiens, UniProt Q9UN76); assay: D-serine uptake in MCF7 cells (constitutively expressed ATB^0,+); details: MCF7 cells; for IC50: D-serine 5 μM, NaCl, read-out: IC50 for inhibition of D-serine uptake
T2 construct: host or cells: MCF7
T2 sequence (Q9UN76 1-642): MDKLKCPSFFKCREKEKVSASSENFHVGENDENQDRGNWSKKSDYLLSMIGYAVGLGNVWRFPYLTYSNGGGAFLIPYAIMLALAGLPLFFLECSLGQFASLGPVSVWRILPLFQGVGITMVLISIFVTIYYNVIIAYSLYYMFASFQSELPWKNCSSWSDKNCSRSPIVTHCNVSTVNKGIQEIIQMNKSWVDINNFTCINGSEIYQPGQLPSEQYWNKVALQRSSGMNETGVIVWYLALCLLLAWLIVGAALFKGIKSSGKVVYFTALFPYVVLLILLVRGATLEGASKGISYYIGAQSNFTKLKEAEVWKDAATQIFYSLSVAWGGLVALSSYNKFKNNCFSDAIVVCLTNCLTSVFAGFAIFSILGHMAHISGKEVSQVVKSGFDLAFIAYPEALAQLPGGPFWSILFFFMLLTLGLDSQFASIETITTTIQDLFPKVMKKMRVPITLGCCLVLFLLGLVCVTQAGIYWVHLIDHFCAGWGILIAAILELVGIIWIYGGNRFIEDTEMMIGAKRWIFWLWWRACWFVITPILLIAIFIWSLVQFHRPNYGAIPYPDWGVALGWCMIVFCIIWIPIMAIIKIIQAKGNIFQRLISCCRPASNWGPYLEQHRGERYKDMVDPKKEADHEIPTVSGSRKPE
Description: Cells were seeded and grown in 24-well culture plates to confluency and used for uptake measurements. Radiolabelled glycine or D-serine was used as the substrate to determine the transport function of ATB^0,+. Uptake measurements were routinely made in an NaCl-containing buffer (25 mM Hepes/Tris buffer, pH 7.4, 140 mM NaCl, 5.4 mM KCl, 1.8 mM CaCl2, 0.8 mM MgSO4 and 5 mM glucose). Ion dependence of the transport process was evaluated by studying the uptake activity in buffers of varying compositions. NaCl in the uptake buffer was replaced iso-osmotically with NMDG (N-methyl-D-glucamine) chloride to prepare an Na^+-free buffer, and with sodium gluconate to prepare a Cl^−-free buffer. Linear uptake rates were determined by employing a 10 min incubation period, based on time course experiments. Na^+-activation kinetics was analysed by studying the uptake rates in the presence of varying concentrations of Na^+ (2.5-140 mM) in the uptake buffer with Cl^− concentration kept constant at 140 mM. This was done by replacing NaCl with appropriate concentrations of NMDG. Cl^−-activation kinetics was analysed by studying the uptake rates in the presence of varying concentrations of Cl^− (2.5-100 mM) in the uptake buffer with Na^+ concentration kept constant at 140 mM. This was done by replacing NaCl with appropriate concentrations of sodium gluconate. Uptake data for Na^+- and Cl^−-activation kinetics were analysed using the Hill equation, and values for K0.5 for Na^+ and Cl^− and for the Hill coefficient (h) were determined by linear and non-linear regression methods. A commercially available software program (Sigma Plot, version 6.0; SPSS) was used for this purpose. Substrate specificity of the uptake process was evaluated by monitoring the effects of unlabelled amino acids (5 mM) on the uptake of radiolabelled glycine or D-serine (5 μM: radiolabelled substrate, 0.05 μM; unlabelled substrate, 4.95 μM).
The kinetic nature of inhibition of D-serine uptake by α-methyl-DL-tryptophan was investigated in MCF7 cells by monitoring the uptake at increasing concentrations of D-serine (range, 50-2000 μM) in the absence and presence of 100 μM α-methyl-DL-tryptophan. The kinetic parameters were calculated by linear regression (Eadie-Hofstee plots) and the values were confirmed by non-linear regression.
We employed a similar experimental strategy to detect specifically the transport function of ATB^0,+ in the remaining seven cell lines. […] We also investigated the effect of α-methyl-DL-tryptophan on D-serine uptake in MCF7 cells.

[4] = target: human LAT1/4F2hc (Homo sapiens, UniProt Q01650); assay: Inhibition of LAT1 transport function: L-valine uptake in HRPE cells co-expressing human LAT1 and human 4F2hc; details: 1 mM; L-[14C]valine 0.75 μM; 5 min
[5] = target: T3, human ATB^0,+ (Homo sapiens, UniProt Q9UN76); assay: Block of inward currents induced by amino acid mixture simulating plasma in X. laevis oocytes expressing human ATB^0,+; details: even at 1 mM; amino acid mixture simulating plasma
T3 construct: The human ATB^0,+ cDNA was cloned from an MCF7 cell (a human mammary epithelial cancer cell line) cDNA library; expressed in transfected cells; host or cells: Xenopus laevis oocytes injected with 50 ng capped cRNA
T3 sequence (Q9UN76 1-642): T2 sequence (Q9UN76 1-642)
Description: as §1
These studies with α-methyl-DL-tryptophan as a blocker of ATB^0,+ were carried out with L-tryptophan at sub-saturating concentrations. […] Therefore, using the Xenopus oocyte heterologous expression system, we monitored the transport activity of human ATB^0,+ in the presence of an amino acid mixture consisting of 18 different amino acids, each at its respective physiological concentration found in plasma (Glew et al., 2004, Clin. Chim. Acta 342, 179-185) (Table 1). Inward currents were detected under these conditions in oocytes expressing human ATB^0,+. […] We then monitored the ability of α-methyl-DL-tryptophan to block the inward currents induced by the same mixture of amino acids in oocytes expressing human ATB^0,+ (FIG. 4B). […]

Chain of human LAT1/4F2hc (Q01650 whole entry): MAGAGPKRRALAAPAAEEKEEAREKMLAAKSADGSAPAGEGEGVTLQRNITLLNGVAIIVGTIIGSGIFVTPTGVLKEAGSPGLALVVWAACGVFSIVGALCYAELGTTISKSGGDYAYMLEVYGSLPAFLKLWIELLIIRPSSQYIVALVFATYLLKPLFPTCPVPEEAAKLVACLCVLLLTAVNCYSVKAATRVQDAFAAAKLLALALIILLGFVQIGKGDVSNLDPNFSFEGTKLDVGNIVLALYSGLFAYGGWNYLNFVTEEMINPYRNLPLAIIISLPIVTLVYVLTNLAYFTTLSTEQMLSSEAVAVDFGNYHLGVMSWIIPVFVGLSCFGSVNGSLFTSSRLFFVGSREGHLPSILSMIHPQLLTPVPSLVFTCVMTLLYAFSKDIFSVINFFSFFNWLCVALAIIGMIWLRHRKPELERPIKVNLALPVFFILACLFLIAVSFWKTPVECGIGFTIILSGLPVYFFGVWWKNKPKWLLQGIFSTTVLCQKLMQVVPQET
Chain of human LAT1/4F2hc (P08195 102-630 partner): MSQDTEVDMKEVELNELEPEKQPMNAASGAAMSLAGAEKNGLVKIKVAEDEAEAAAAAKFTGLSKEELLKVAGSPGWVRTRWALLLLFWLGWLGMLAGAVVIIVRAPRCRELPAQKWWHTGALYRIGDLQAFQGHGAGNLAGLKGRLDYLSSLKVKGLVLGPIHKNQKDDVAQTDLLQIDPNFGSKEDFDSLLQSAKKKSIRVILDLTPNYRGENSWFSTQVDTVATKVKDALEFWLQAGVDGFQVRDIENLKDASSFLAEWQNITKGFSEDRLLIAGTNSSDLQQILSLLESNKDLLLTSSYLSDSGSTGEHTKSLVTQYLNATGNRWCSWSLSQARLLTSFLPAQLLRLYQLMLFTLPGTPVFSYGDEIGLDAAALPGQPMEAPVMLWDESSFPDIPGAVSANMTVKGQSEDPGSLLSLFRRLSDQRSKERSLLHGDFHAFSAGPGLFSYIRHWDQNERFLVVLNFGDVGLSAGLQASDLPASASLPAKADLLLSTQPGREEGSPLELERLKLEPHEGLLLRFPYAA

Cc1cccc2[nH]cc(CC(N)C(=O)O)c12 (racemic) [4-methyl-DL-tryptophan]
inhibition of ATB^0,+-specific glycine uptake [1]: inhibited

Cc1ccc2[nH]cc(CC(N)C(=O)O)c2c1 (racemic) [5-methyl-DL-tryptophan]
inhibition of ATB^0,+-specific glycine uptake [1]: inhibited

Cc1ccc2c(CC(N)C(=O)O)c[nH]c2c1 (racemic) [6-methyl-DL-tryptophan]
inhibition of ATB^0,+-specific glycine uptake [1]: inhibited

N[C@@H](Cc1c[nH]c2ccc(O)cc12)C(=O)O [5-hydroxy-L-tryptophan]
inhibition of ATB^0,+-specific glycine uptake [1]: inhibited

NCCc1c[nH]c2ccc(O)cc12 [5-hydroxytryptamine]
inhibition of ATB^0,+-specific glycine uptake [1]: not able to inhibit
inward currents induced in ATB^0,+-expressing oocytes [2]: did not induce currents

N=C(N)NCCC[C@H](N)C(=O)O [Arginine]
IC50 [3]: 250 to 500 µM

N[C@H](CO)C(=O)O [D-serine]
Kt for D-serine uptake ([3]; absence of the blocker): 517 ± 38 µM
Vmax for D-serine uptake ([3]; absence of the blocker): 32.4±1.5 nmol/mg of protein per 15 min

N[C@H](Cc1c[nH]c2ccccc12)C(=O)O [D-tryptophan]
inhibition of ATB^0,+-specific glycine uptake [1]: inhibited
Michaelis constant (K0.5) of substrate-induced currents ([2]; saturation kinetics): 288 ± 48 µM

COC(=O)[C@@H](N)Cc1c[nH]c2ccccc12 [L-tryptophan methyl ester]
inhibition of ATB^0,+-specific glycine uptake [1]: inhibited

CC(=O)N[C@@H](Cc1c[nH]c2ccccc12)C(=O)O [N-acetyl-L-tryptophan]
inhibition of ATB^0,+-specific glycine uptake [1]: not able to inhibit
inward currents induced in ATB^0,+-expressing oocytes [2]: did not induce currents

NCCCC[C@H](N)C(=O)O [lysine]
IC50 [3]: 250 to 500 µM

N[C@@H](Cc1c[nH]c2ccccc12)C(=O)O [tryptophan]
effect on cDNA-induced valine uptake [4]: abolished completely

C[C@@](N)(Cc1c[nH]c2ccccc12)C(=O)O [α-methyl-D-tryptophan, α-Methyl-D-Tryptophan]
inhibition at 1000 µM [5]: ≤ 40%
